Experimental data published in paper PMC9267955, “Antidiabetic, Antiglycation, and Antioxidant Activities of Ethanolic Seed Extract of Passiflora edulis and Piceatannol In Vitro” (Molecules, 2022).

Key:
AML-12 cells [1] = experiment: Intracellular ROS level (DCFH-DA) after NNKOAc; format: cell-based, mouse; conditions: 50 µg/mL, 3 h pretreatment; NNKOAc 100 µM
Method: The generation of intracellular ROS in BEAS-2B, AML-12, and MCF-10A cells after treatments was measured as described previously. Briefly, DCFH-DA dye was readily taken up by cells and is subsequently hydrolyzed to DCFH, which can be oxidized to a measurable fluorescent product dichlorofluorescein (DCF). […] Cells with DMSO media (0.5%) served as the vehicle control. After treatments, DCFH-DA was added to the cell culture plates at a final concentration of 5 μM followed by 40 min incubation at dark. The fluorescence […] was then measured at an excitation and emission wavelength of 485 nm and 535 nm, using a microplate reader (Infinite® 200 PRO, TECAN, Männedorf, Switzerland).
BEAS-2B, MCF10-A, and AML-12, cells were purchased from the American Tissue Type Culture Collection (ATCC; CRL-9609, CRL-10317, and CRL-2254) and cultured with a specific medium. BEAS-2B cells were cultured with LHC-9 media at 37 °C in an incubator with 5% CO2. Culture flasks (polystyrene T75) were pre-coated with a mixture of 0.01 mg/mL fibronectin, 0.03 mg/mL bovine collagen type I, and 0.01 mg/mL bovine serum albumin were dissolved in LHC-9 medium overnight. […]

[2] = system: high-fat diet-fed C57BL/6J mice; set-up: method as in PMID 25832644; conditions: PIC supplementation; cited from earlier work
AML-12 cells [3] = experiment: MTS cell viability assay; format: cell-based, mouse; conditions: up to 250 µg/mL; 24 h
Method: BEAS-2B, MCF10-A, and AML-12, cells were purchased from the American Tissue Type Culture Collection (ATCC; CRL-9609, CRL-10317, and CRL-2254) and cultured with a specific medium. BEAS-2B cells were cultured with LHC-9 media at 37 °C in an incubator with 5% CO2. […] Cells were grown to around 70% confluence on the culture flask, and passages (<10) were employed for all experimental conditions. MTS Cell Titer 96™ aqueous cell proliferation assay was used to determine cell viability. […] For that, 1 × 10^4 cells were plated on a 96-well plate with a growth medium of 100 μL/well. […] Fifteen microliters of MTS reagent (with PMS) was then added to each well and incubated for 3 h in the dark. Absorbance was recorded at 490 nm using a microplate reader (Infinite® 200 PRO, TECAN, Männedorf, Switzerland). For each experiment, cells with DMSO media served as control, and cells with only culture medium and MTS reagent served as the blank.

[4] = Superoxide anion radical scavenging activity
Method: The potential of the samples to scavenger superoxide anion radicals was determined, with minor modifications. […] Phosphate buffer (19 mM, pH 7.4) was used to dissolve NADH, NBT, and PMS. QCT was used as means of comparison. The experiment was conducted at 37 °C in a microplate reader (Infinite® 200 PRO, TECAN, Männedorf, Switzerland), and the absorbance was measured at 560 nm. The results were expressed as IC50 of extract solution in μg/mL.

db/db mice = system: db/db mice; set-up: method as in PMID 25832644; conditions: PIC supplementation; cited from earlier work
[5] = DPPH radical scavenging assay
Method: After incubation in the dark for 30 min, the absorbance was read at 516 nm, using a UV–Vis spectrophotometer (Agilent Technologies, Santa Clara, CA, USA). Results were expressed as the half-maximal inhibitory concentration (IC50) in μg/mL.

[6] = MGO capture using derivatization with OPD (HPLC); conditions: PESE 2 mg/mL, PIC 2 mM, AMG 2 mM; MGO 2 mM; 37 °C, 1 h
Method: MGO scavenging was tested using a described procedure, with slight modifications. The quantification of MGO was based on derivatization with OPD, leading to the formation of the product 2-methylquinoxyline (2-MQ). MGO and OPD were dissolved in phosphate buffer (50 mM, pH 7.4) to a concentration of 2 mM and 4 mM, respectively. […] The reaction system was composed of 125 μL of the MGO solution, 125 μL of phosphate buffer (negative control), or PESE incubated at 37 °C for 1 h. After 250 μL of the OPD solution was added, the tubes were kept for 30 min for the derivatization reaction between MGO and OPD to complete. Then, the chromatographic analysis was performed. All solutions were previously filtered (microfilter pore diameter 0.45 μm). […] The linear gradient for elution was: starting at 5% of solvent B, 0–3 min, 5 to 50% B; 3–16 min, isocratic in 50% B; 16–17 min, 50–90% B; 17–19 min, isocratic in 90% B and 19–19.5 min, 90–5% B. The derivatization product, 2-methylquinoxyline (2-MQ), was detected at 315 nm, with a retention time of 10 min. The percentage of trapping efficiency of MGO was calculated using the following equation: % trapping MGO = [100 − (peak area after adding sample/peak area without adding sample) × 100].

Method for HOCl scavenging activity: Briefly, a freshly prepared HOCl solution, by adjusting the pH of a 1% solution of NaOCl to 6.2 with dropwise addition of diluted H2SO4, was diluted to 30 µM, using 100 mM phosphate buffer pH 7.4. […] QCT was used as means of comparison. Fluorescence assays were performed in a microplate reader (Infinite® 200 PRO, TECAN, Männedorf, Switzerland), at 37 °C, at wavelengths of 505 ± 10 nm and 530 ± 10 nm, for excitation and emission, respectively. The results were expressed as IC50 (μg/mL) of extract solution.

In the case of Oc1cc(O)cc(/C=C/c2ccc(O)c(O)c2)c1 [PIC, 3,3′,4′,5-trans-tetrahydroxystilbene], the “Protection from oxidative stress (ROS) caused by the carcinogen, AML-12” value (AML-12 cells [1]) is listed as “able to protect”, the “Fasting blood glucose, high-fat diet-fed C57BL/6J mice” value [2] is listed as “reduced fasting blood glucose” and the “Viability of AML-12 cells” value (AML-12 cells [3]) is listed as “maintained”. The “HOCl IC50” value (HOCl scavenging activity) was 1.2 ± 0.5 µg/mL, the “O2•− IC50” value [4] was 7.3 ± 0.02 µg/mL and the IC50 ([4]; data in parenthesis are in μM, read-out: O2•− IC50 (in parenthesis) (converted)) was 30.1 µM. For the same compound, the “Fasting blood glucose, db/db mice” value (db/db mice) was “reduced fasting blood glucose”, the “DPPH• IC50” value ([5]; 30 min) was 6.3 ± 1.3 µg/mL and the IC50 ([5]; data in parenthesis are in μM) was 25.8 µM. It also gave an MGO trapping [6] of 65.1%.
